From patent US5393897A, “Isolation and structure of spongistatins 5,7,8 and 9” (Arizona Board of Regents acting on behalf of Arizona State …, priority 1993, dated 1995)
Converted amounts (≈) assume the structure as drawn. Where two headings read alike, the source gives them in different places.

What was measured:
[1] = system: 60 human tumor cell lines; assay: NCI in vitro primary screen, panel of 60 human tumor cell lines; format: cell-based; conditions: for GI50: Homo sapiens
Excerpt: Only two hundred years ago, many diseases ravaged humankind. Many of these diseases now have been controlled or eradicated. In the development of the means to treat or control these diseases, work with the appropriate common experimental animals was of critical importance. With the various types of cancers, and with the HIV virus, such work is presently ongoing. The research for the treatment of various types of cancer is coordinated in the United States by the National Cancer Institute (NCI). NCI, as a government entity, has been charged with assisting anti-cancer research. To establish whether a substance has anti-cancer activity, NCI has established a variety of protocols, one of which involves testing the candidate substance against a cell line panel containing 60 human tumor cell lines. This protocol has been verified and is generally accepted throughout the scientific community. This protocol and the established statistical means of evaluating the results obtained therefrom have been fully described in the literature. See Principles & Practice of Oncology PPO Updates, Volume 3, Number 10, October 1989, by Michael R. Boyd, M.D., Ph.D., for an in depth description of the test protocol. The statistical analysis is explained in "Display and Analysis of Patterns of Differential Activity of Drugs Against Human Tumor Cell Lines: Development of Means Graph and COMPARE Algorithm" Journal of the National Cancer Institute Reports Vol. 81, No. 14, Pg. 1088, Jul. 14, 1989, by K. D. Paull et al. Both of these references are incorporated herein by this reference thereto. The effectiveness and validity of the NCI in vitro protocol continues to be verified.
^a All compounds were tested in quadruplicate at five different con-
entire panel of 60 human tumor cell lines comprising the NCI
^c Correlation coefficients from the Compare pattern-recognition
algorithm were calculated by computer using the TGI-centered
mean graph profiles of differential cellular sensitivities to 1, and
5. The TGI mean graph profile of 1 was used as the benchmark or
"seed" for all of the comparisons.

P388 = conditions: IP, Q1D × 9, female mice
[2] = system: 60 human tumor cell lines; conditions: Background on spongistatins from Spongia sp; cited from earlier work
[3] = system: P388 lymphocytic leukemia cell line; assay: P388 lymphocytic leukemia cell line bioassay; format: cell-based; conditions: Mus musculus; PS (P388); pure compound; read-out: ED50 (the source's name)

Compound	% ILS (increase in life span over controls) (P388; 40 μg/kg/dose)	potency in NCI panel [2]	IC50 [3]	also measured
C=C(Cl)/C=C/C(O)CC(=C)CC1OC2C(C)C(OC(=O)CC3CC(OC(C)=O)CC4(CC(C)(O)CC(CC(=C)C(C)C(OC(C)=O)C(C)C(=O)CC5CC(OC)CC6(CC(O)CC(/C=C\CCCC7OC(O)(CC(O)C7C)C2O)O6)O5)O4)O3)C1O (stereo not drawn) [spongistatin 1, reference compound]	-10%	one of the most extraordinarily potent substances presently known	–	GI50 ([1]; NCI 60 cell line panel, read-out: panel mean GI50): 0.1 nM; GI50 ([1]; quadruplicate, five concentrations, standard errors averaged less than 15% of means, read-out: Mean Panel GI50): 0.117 nM; Compare Correlation Coefficient ([1]; TGI-centered mean graph profiles, spongistatin 1 as seed): 1.00; correlation of mean-graph fingerprint with microtubule-interactive antimitotics ([1]; pattern-recognition analyses, data not shown): closely correlated; % ILS (increase in life span over controls) (P388; 25 μg/kg/dose): +33%
C=C(Cl)/C=C/[C@H](O)CC(=C)C[C@H]1OC2[C@@H](O)[C@]3(O)C[C@@H](O)[C@H](C)[C@H](CCC/C=C\[C@@H]4C[C@@H](O)C[C@]5(C[C@H](OC)CC(CC(=O)[C@@H](C)[C@H](OC(C)=O)[C@@H](C)C(=C)C[C@@H]6C[C@@](C)(O)C[C@]7(C[C@H](O)CC(CC(=O)O[C@@H]([C@@H]1O)[C@H]2C)O7)O6)O5)O4)O3 [spongistatin 3]	–	exceptionally potent	–	–
C=C(Cl)/C=C/[C@H](O)CC(=C)C[C@H]1OC2[C@@H](O)[C@]3(O)C[C@@H](O)[C@H](C)[C@H](CCC/C=C\[C@@H]4C[C@@H](O)C[C@]5(C[C@H](OC)CC(CC(=O)[C@@H](C)[C@H](O)[C@@H](C)C(=C)C[C@@H]6C[C@@](C)(O)C[C@]7(C[C@H](OC(C)=O)CC(CC(=O)O[C@@H]([C@@H]1O)[C@H]2C)O7)O6)O5)O4)O3 [spongistatin 4]	–	–	–	% ILS (increase in life span over controls) (P388; 5 μg/kg/dose): +55%
C=C/C=C/C(O)CC(=C)CC1OC2C(C)C(OC(=O)CC3CC(OC(C)=O)CC4(CC(C)(O)CC(CC(=C)C(C)C(O)C(C)C(=O)CC5CC(OC)CC6(CC(O)CC(/C=C\CCCC7OC(O)(CC(O)C7C)C2O)O6)O5)O4)O3)C1O (stereo not drawn) [spongistatin 6]	+70%	–	–	–
C=C/C=C/C(O)CC(=C)CC1OC2C(C)C(OC(=O)CC3CC(OC(C)=O)CC4(CC(C)(O)CC(C=C5COC(C(C)C(=O)CC6CC(OC)CC7(CC(O)CC(/C=C\CCCC8OC(O)(CC(O)C8C)C2O)O7)O6)C5C)O4)O3)C1O (stereo not drawn) [spongistatin 8]	–	–	0.8 ng/mL (≈ 0.698 nM)	–
C=C(Cl)/C=C/C(O)CC(=C)CC1OC2C(C)C(OC(=O)CC3CC(OC(C)=O)CC4(CC(C)(O)CC(C=C5COC(C(C)C(=O)CC6CC(OC)CC7(CC(O)CC(/C=C\CCCC8OC(O)(CC(O)C8C)C2O)O7)O6)C5C)O4)O3)C1O (stereo not drawn) [spongistatin 9]	–	–	< 0.1 ng/mL	–
